# Measurements published in the supplement of paper PMC10307832.
# Tests used:
# Test in all cases: relative viability (nuclei count vs DMSO), 5 days (fraction); higher = more cells survive
# KN-93 + Crizotinib = compound: CN(C/C=C/C1=CC=C(C=C1)Cl)CC2=CC=CC=C2N(CCO)S(=O)(=O)C3=CC=C(C=C3)OC [KN-93] + C[C@@H](Oc1cc(-c2cnn(C3CCNCC3)c2)cnc1N)c1c(Cl)ccc(F)c1Cl [Crizotinib] (partner 1 µM)
# Procedure, shortened: (§1)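 For relative viability, nuclei counts in treated wells were divided by those in vehicle wells. Lung cancer cell lines had been pin-tool dosed in 1536-well plates the day after seeding and cultured for 5 days, then fixed and stained in one step (final 0.05% Triton X-100, 1% formaldehyde, 1 ug/ml Hoechst) and imaged at 4×. Doses were one drug alone or a fixed anchor-drug dose plus five library-drug doses (not always all listed) in √10 steps, and values are duplicate-plate medians.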
# KN-93 + Foretinib = compound: CN(C/C=C/C1=CC=C(C=C1)Cl)CC2=CC=CC=C2N(CCO)S(=O)(=O)C3=CC=C(C=C3)OC [KN-93] + COc1cc2c(Oc3ccc(NC(=O)C4(C(=O)Nc5ccc(F)cc5)CC4)cc3F)ccnc2cc1OCCCN1CCOCC1 [Foretinib] (partner 0.25 µM)
# Procedure, shortened: as §1
# KN-93 + Linsitinib = compound: CN(C/C=C/C1=CC=C(C=C1)Cl)CC2=CC=CC=C2N(CCO)S(=O)(=O)C3=CC=C(C=C3)OC [KN-93] + C[C@]1(O)C[C@@H](c2nc(-c3ccc4ccc(-c5ccccc5)nc4c3)c3c(N)nccn32)C1 [Linsitinib] (partner 1 µM)
# Procedure, shortened: as §1
# KN-93 + Phenformin = compound: CN(C/C=C/C1=CC=C(C=C1)Cl)CC2=CC=CC=C2N(CCO)S(=O)(=O)C3=CC=C(C=C3)OC [KN-93] + N=C(N)NC(=N)NCCc1ccccc1 [Phenformin] (partner 250 µM)
# Procedure, shortened: as §1
# KN-93 = compound: CN(C/C=C/C1=CC=C(C=C1)Cl)CC2=CC=CC=C2N(CCO)S(=O)(=O)C3=CC=C(C=C3)OC [KN-93]
# Procedure, shortened: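 Cells of lung cancer lines were placed in 1536-well plates and kept overnight at 37 °C. Pinning then delivered five library-drug doses (not always all listed), spaced by √10, onto plates anchored with vehicle, and the cells were left 5 days without changing medium. One step fixed, permeabilised and stained them with Hoechst, and MetaXpress counted nuclei in 4× images. Viability, as a median over plates, is treated-well nuclei divided by vehicle-well nuclei, with acceptance only at control CV below 25% and at least one doubling.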
Cell Line,relative viability (KN-93 + Crizotinib; first compound 0.08 µM),relative viability (KN-93 + Crizotinib; first compound 0.253 µM),relative viability (KN-93 + Crizotinib; first compound 2.53 µM),relative viability (KN-93 + Crizotinib; first compound 8 µM),relative viability (KN-93 + Foretinib; first compound 0.08 µM),relative viability (KN-93 + Foretinib; first compound 0.253 µM),relative viability (KN-93 + Foretinib; first compound 2.53 µM),relative viability (KN-93 + Foretinib; first compound 8 µM),relative viability (KN-93 + Linsitinib; first compound 0.08 µM),relative viability (KN-93 + Linsitinib; first compound 0.253 µM),relative viability (KN-93 + Linsitinib; first compound 2.53 µM),relative viability (KN-93 + Linsitinib; first compound 8 µM),relative viability (KN-93 + Phenformin; first compound 0.08 µM),relative viability (KN-93 + Phenformin; first compound 0.253 µM),relative viability (KN-93 + Phenformin; first compound 2.53 µM),relative viability (KN-93 + Phenformin; first compound 8 µM),relative viability (KN-93; 0.08 µM),relative viability (KN-93; 0.253 µM),relative viability (KN-93; 2.53 µM),relative viability (KN-93; 8 µM)
PC-14,0.89,0.842,0.953,0.585,0.797,0.988,1.12,1.01,0.855,0.976,1.07,0.824,0.593,0.685,0.596,0.547,0.943,1.04,1.2,0.92
NCI-H2087,0.678,1.01,0.84,0.55,0.983,1.31,1.21,0.697,0.941,0.905,0.824,0.43,0.427,0.648,0.57,0.442,0.788,1.13,1.12,0.533
H3255,0.995,0.952,0.48,0.623,0.986,0.902,0.864,0.807,0.802,1.09,1.08,0.584,0.383,0.339,0.401,0.362,1.03,0.992,0.969,0.666
NCI-H727,0.667,1,0.637,0.429,1.04,0.945,0.863,0.553,0.292,0.223,0.256,0.223,0.576,0.601,0.814,0.533,1.03,0.833,1.02,0.649
NCI-H460,0.387,0.985,1.33,0.449,0.715,1.06,1.02,0.591,0.466,1.14,0.805,0.375,0.299,0.565,0.552,0.396,0.821,1.06,1.03,0.652
NCI-H2228,0.445,0.48,0.526,0.248,0.872,0.891,0.862,0.506,0.581,0.517,0.63,0.314,0.229,0.347,0.412,0.325,0.904,1.27,1.41,0.711
NCI-H647,0.916,1.48,1.13,0.511,1.11,1.37,1.54,1.07,1.33,1.5,1.65,0.952,0.696,0.552,0.643,0.484,0.985,1.25,1.01,0.813
NCI-H2170,1.13,1.66,1.42,0.931,0.973,1.23,0.903,0.892,–,–,–,–,0.434,0.419,0.392,0.402,0.761,1.03,1.01,0.676
LCLC-97TM1,0.321,–,0.379,0.255,0.955,0.978,0.895,0.74,0.162,–,0.2,0.142,0.418,0.494,0.488,0.407,0.975,1.29,1.09,0.601
SK-MES-1,1.05,0.979,1.27,0.8,0.857,0.656,0.937,0.999,1.06,1.05,1.12,1.02,0.554,0.751,0.699,0.571,0.888,0.981,1.07,0.766
NCI-H358,0.565,0.568,0.519,0.426,0.519,0.733,0.64,0.335,0.631,0.81,0.634,0.353,0.32,0.444,0.384,0.251,0.834,1.04,0.916,0.539
A-427,0.852,0.943,0.798,0.436,1.06,1.11,1.04,0.807,1.1,1.2,1.13,0.965,0.322,0.35,0.278,0.229,1.03,1.21,0.976,0.531
NCI-H1734,0.646,0.752,0.74,0.421,0.72,0.847,0.734,0.585,0.855,0.949,1.03,0.734,0.363,0.446,0.381,0.411,0.942,1.15,1.14,0.668
LXF-289,0.782,0.913,0.825,0.532,0.982,1.01,0.944,0.805,0.963,1,0.964,0.652,0.515,0.568,0.597,0.504,0.942,1.07,1.02,0.828
NCI-H1437,0.851,1.27,0.894,0.47,1.17,1.26,1.13,0.64,0.879,1.41,1.04,0.487,0.396,0.292,0.352,0.31,1.03,1.09,0.895,0.584
